Measured values: PubChem BioAssay (NCI)
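Protocol summary: plate cells (96-well), add compound at 5 concentrations, incubate 48 h, interpolate endpoints linearly. GI50 is the concentration that inhibits growth by half. TGI is the concentration that stops growth completely.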

Columns and labels:
Experiment in all cases: DTP human tumour cell line panel, 48 h
786-0 renal = test system: 786-0 renal
A498 renal = test system: A498 renal
A549 NSCLC = test system: A549 NSCLC
ACHN renal = test system: ACHN renal
BT-549 breast = test system: BT-549 breast
CAKI-1 renal = test system: CAKI-1 renal
CCRF-CEM leukemia = test system: CCRF-CEM leukemia
COLO 205 colon = test system: COLO 205 colon
DU-145 prostate = test system: DU-145 prostate
EKVX NSCLC = test system: EKVX NSCLC
HCC-2998 colon = test system: HCC-2998 colon
HCT-116 colon = test system: HCT-116 colon
HCT-15 colon = test system: HCT-15 colon
HL-60(TB) leukemia = test system: HL-60(TB) leukemia
HOP-62 NSCLC = test system: HOP-62 NSCLC
HOP-92 NSCLC = test system: HOP-92 NSCLC
HS 578T breast = test system: HS 578T breast
HT29 colon = test system: HT29 colon
IGROV1 ovarian = test system: IGROV1 ovarian
K-562 leukemia = test system: K-562 leukemia
KM12 colon = test system: KM12 colon
LOX IMVI melanoma = test system: LOX IMVI melanoma
M14 melanoma = test system: M14 melanoma
MALME-3M melanoma = test system: MALME-3M melanoma
MCF7 breast = test system: MCF7 breast
MDA-MB-231 breast = test system: MDA-MB-231 breast
MDA-MB-435 = test system: MDA-MB-435
MOLT-4 leukemia = test system: MOLT-4 leukemia
NCI-H226 lung = test system: NCI-H226 lung
NCI-H23 lung = test system: NCI-H23 lung
NCI-H460 lung = test system: NCI-H460 lung
NCI-H522 lung = test system: NCI-H522 lung
NCI/ADR-RES ovarian = test system: NCI/ADR-RES ovarian
OVCAR-3 ovarian = test system: OVCAR-3 ovarian
OVCAR-4 ovarian = test system: OVCAR-4 ovarian
OVCAR-5 ovarian = test system: OVCAR-5 ovarian
OVCAR-8 ovarian = test system: OVCAR-8 ovarian
PC-3 prostate = test system: PC-3 prostate
RPMI-8226 leukemia = test system: RPMI-8226 leukemia
RXF 393 renal = test system: RXF 393 renal
SF-268 CNS = test system: SF-268 CNS
SF-295 CNS = test system: SF-295 CNS
SF-539 CNS = test system: SF-539 CNS
SK-MEL-2 melanoma = test system: SK-MEL-2 melanoma
SK-MEL-28 melanoma = test system: SK-MEL-28 melanoma
SK-MEL-5 melanoma = test system: SK-MEL-5 melanoma
SK-OV-3 ovarian = test system: SK-OV-3 ovarian
SN12C renal = test system: SN12C renal
SNB-19 CNS = test system: SNB-19 CNS
SNB-75 CNS = test system: SNB-75 CNS
SR leukemia = test system: SR leukemia
SW-620 colon = test system: SW-620 colon
T-47D breast = test system: T-47D breast
TK-10 renal = test system: TK-10 renal
U251 CNS = test system: U251 CNS
UACC-62 melanoma = test system: UACC-62 melanoma
UO-31 renal = test system: UO-31 renal

Structure (SMILES): O=c1[nH]c2ccccc2c2ccccc12
- GI50 (786-0 renal): > 100 µM
- TGI (786-0 renal): > 100 µM
- GI50 (A498 renal): 44.7 µM
- TGI (A498 renal): > 100 µM
- GI50 (A549 NSCLC): > 100 µM
- TGI (A549 NSCLC): > 100 µM
- GI50 (ACHN renal): > 100 µM
- TGI (ACHN renal): > 100 µM
- GI50 (BT-549 breast): > 100 µM
- TGI (BT-549 breast): > 100 µM
- GI50 (CAKI-1 renal): > 100 µM
- TGI (CAKI-1 renal): > 100 µM
- GI50 (CCRF-CEM leukemia): > 100 µM
- TGI (CCRF-CEM leukemia): > 100 µM
- GI50 (COLO 205 colon): > 100 µM
- TGI (COLO 205 colon): > 100 µM
- GI50 (DU-145 prostate): > 100 µM
- TGI (DU-145 prostate): > 100 µM
- GI50 (EKVX NSCLC): 92.9 µM
- TGI (EKVX NSCLC): > 100 µM
- GI50 (HCC-2998 colon): > 100 µM
- TGI (HCC-2998 colon): > 100 µM
- GI50 (HCT-116 colon): > 100 µM
- TGI (HCT-116 colon): > 100 µM
- GI50 (HCT-15 colon): > 100 µM
- TGI (HCT-15 colon): > 100 µM
- GI50 (HL-60(TB) leukemia): > 100 µM
- TGI (HL-60(TB) leukemia): > 100 µM
- GI50 (HOP-62 NSCLC): > 100 µM
- TGI (HOP-62 NSCLC): > 100 µM
- GI50 (HOP-92 NSCLC): 39.8 µM
- TGI (HOP-92 NSCLC): > 100 µM
- GI50 (HS 578T breast): > 100 µM
- TGI (HS 578T breast): > 100 µM
- GI50 (HT29 colon): > 100 µM
- TGI (HT29 colon): > 100 µM
- GI50 (IGROV1 ovarian): > 100 µM
- TGI (IGROV1 ovarian): > 100 µM
- GI50 (K-562 leukemia): > 100 µM
- TGI (K-562 leukemia): > 100 µM
- GI50 (KM12 colon): > 100 µM
- TGI (KM12 colon): > 100 µM
- GI50 (LOX IMVI melanoma): > 100 µM
- TGI (LOX IMVI melanoma): > 100 µM
- GI50 (M14 melanoma): > 100 µM
- TGI (M14 melanoma): > 100 µM
- GI50 (MALME-3M melanoma): > 100 µM
- TGI (MALME-3M melanoma): > 100 µM
- GI50 (MCF7 breast): > 100 µM
- TGI (MCF7 breast): > 100 µM
- GI50 (MDA-MB-231 breast): > 100 µM
- TGI (MDA-MB-231 breast): > 100 µM
- GI50 (MDA-MB-435): > 100 µM
- TGI (MDA-MB-435): > 100 µM
- GI50 (MOLT-4 leukemia): > 100 µM
- TGI (MOLT-4 leukemia): > 100 µM
- GI50 (NCI-H226 lung): > 100 µM
- TGI (NCI-H226 lung): > 100 µM
- GI50 (NCI-H23 lung): > 100 µM
- TGI (NCI-H23 lung): > 100 µM
- GI50 (NCI-H460 lung): 70.1 µM
- TGI (NCI-H460 lung): > 100 µM
- GI50 (NCI-H522 lung): > 100 µM
- TGI (NCI-H522 lung): > 100 µM
- GI50 (NCI/ADR-RES ovarian): > 100 µM
- TGI (NCI/ADR-RES ovarian): > 100 µM
- GI50 (OVCAR-3 ovarian): > 100 µM
- TGI (OVCAR-3 ovarian): > 100 µM
- GI50 (OVCAR-4 ovarian): 60.7 µM
- TGI (OVCAR-4 ovarian): > 100 µM
- GI50 (OVCAR-5 ovarian): > 100 µM
- TGI (OVCAR-5 ovarian): > 100 µM
- GI50 (OVCAR-8 ovarian): > 100 µM
- TGI (OVCAR-8 ovarian): > 100 µM
- GI50 (PC-3 prostate): > 100 µM
- TGI (PC-3 prostate): > 100 µM
- GI50 (RPMI-8226 leukemia): > 100 µM
- TGI (RPMI-8226 leukemia): > 100 µM
- GI50 (RXF 393 renal): > 100 µM
- TGI (RXF 393 renal): > 100 µM
- GI50 (SF-268 CNS): > 100 µM
- TGI (SF-268 CNS): > 100 µM
- GI50 (SF-295 CNS): > 100 µM
- TGI (SF-295 CNS): > 100 µM
- GI50 (SF-539 CNS): > 100 µM
- TGI (SF-539 CNS): > 100 µM
- GI50 (SK-MEL-2 melanoma): > 100 µM
- TGI (SK-MEL-2 melanoma): > 100 µM
- GI50 (SK-MEL-28 melanoma): > 100 µM
- TGI (SK-MEL-28 melanoma): > 100 µM
- GI50 (SK-MEL-5 melanoma): 91.5 µM
- TGI (SK-MEL-5 melanoma): > 100 µM
- GI50 (SK-OV-3 ovarian): 23.6 µM
- TGI (SK-OV-3 ovarian): > 100 µM
- GI50 (SN12C renal): > 100 µM
- TGI (SN12C renal): > 100 µM
- GI50 (SNB-19 CNS): > 100 µM
- TGI (SNB-19 CNS): > 100 µM
- GI50 (SNB-75 CNS): > 100 µM
- TGI (SNB-75 CNS): > 100 µM
- GI50 (SR leukemia): 77.3 µM
- TGI (SR leukemia): > 100 µM
- GI50 (SW-620 colon): > 100 µM
- TGI (SW-620 colon): > 100 µM
- GI50 (T-47D breast): > 100 µM
- TGI (T-47D breast): > 100 µM
- GI50 (TK-10 renal): > 100 µM
- TGI (TK-10 renal): > 100 µM
- GI50 (U251 CNS): > 100 µM
- TGI (U251 CNS): > 100 µM
- GI50 (UACC-62 melanoma): > 100 µM
- TGI (UACC-62 melanoma): > 100 µM
- GI50 (UO-31 renal): 70.9 µM
- TGI (UO-31 renal): > 100 µM
